Test results published in PubChem BioAssay AID806 (SRMLSC, 2007).
Calls of active or inactive are those of the source. The rule behind the calls is not given here.

Tested on: virus-infected cells, CPE inhibition, dose response
Experiment: PubChem AID 806
Settings: for EC90: measured here: EC90 CPE inhibition; for CC50: measured here: cytotoxicity, cell viability IC50

Structure (SMILES)	EC90	CC50	EC50
O=C(CSc1nnc2sc3ccccc3n12)NCc1ccco1	> 60 µM	> 60 µM	
CC(C)(C)OC(=O)NCCc1nnc(SCc2c(Cl)cccc2Cl)o1	> 60 µM	> 60 µM	> 60 µM (inactive)
CC(c1ccco1)N(C(=O)COc1ccc(Cl)cc1Cl)c1ccccn1 (centres undefined)	> 60 µM	> 60 µM	> 60 µM (inactive)
CCCCN(C(=O)Cn1nnc2ccccc21)C(C(=O)NCc1ccco1)c1ccncc1 (centres undefined)	> 60 µM	> 60 µM	> 60 µM (inactive)
O=C(NCc1cccnc1)C1CCCCN1S(=O)(=O)c1ccc(F)cc1 (centres undefined)	> 60 µM	> 60 µM	> 60 µM (inactive)
COc1ccc(S(=O)(=O)Nc2ccc(F)cc2)cc1N(C)S(=O)(=O)c1ccc(Cl)cc1	> 60 µM	> 60 µM	> 60 µM (inactive)
Cc1cccc(NC(=O)CCS(=O)(=O)c2cccc3nsnc23)c1C	> 60 µM	> 60 µM	> 60 µM (inactive)
S=C(Nc1ccccc1)N1CCn2c1nc1ccccc12	> 60 µM	> 60 µM	> 60 µM (inactive)
Cc1ccc(-n2ncc3c(Nc4cccc(C(=O)O)c4)ncnc32)cc1	> 60 µM	> 60 µM	> 60 µM (inactive)
CCSc1nnc(-c2ccc(Cl)cc2Cl)o1	> 60 µM	43.7 µM	
Cc1c(C(=O)Nc2ccc(Cl)cn2)oc2ccccc12	> 60 µM	> 60 µM	> 60 µM (inactive)
O=C(COc1ccccc1)Nc1ccc(-c2nnc(-c3ccco3)o2)cc1	> 60 µM	> 60 µM	52 µM (inactive)
O=C(Nc1cccc(O)c1)c1noc2c1CCc1ccccc1-2	> 60 µM	> 60 µM	> 60 µM (inactive)
CCOc1ccc(NC(=O)C2CCCCN2S(=O)(=O)c2ccccc2)cc1 (centres undefined)	> 60 µM	> 60 µM	> 60 µM (inactive)
CC1CCCN(C(=O)Nc2cccc(NC(=O)N3CCCC(C)C3C)c2)C1C (centres undefined)	> 60 µM	> 60 µM	> 60 µM (inactive)
O=C(NCc1ccccc1)c1ccc(S(=O)(=O)N2CCCC2)cc1	> 60 µM	> 60 µM	> 60 µM (inactive)
CCOC(=O)/C=C1\SCC(=O)N1CC(=O)Nc1ccc(C(C)C)cc1	> 60 µM	> 60 µM	> 60 µM (inactive)
Cc1nc2c(C(=O)N3CCOCC3)cnn2c(C)c1Cc1ccc(Cl)cc1	> 60 µM	> 60 µM	> 60 µM (inactive)
Cc1cc(NC(=O)C2CC(c3ccc(F)cc3)=NO2)n(-c2ccccc2)n1 (centres undefined)	> 60 µM	> 60 µM	> 60 µM (inactive)
Cc1cccc(NC(=O)C2CC(=O)OC23CCCC3)c1 (centres undefined)	> 60 µM	> 60 µM	> 60 µM (inactive)
CCOC(=O)/C=C1\SCC(=O)N1CC(=O)Nc1ccc2c(c1)CCC2	> 60 µM	> 60 µM	> 60 µM (inactive)
COc1ccc(C2=NOC(C(=O)Nc3cc(C)nn3-c3ccccc3)C2)cc1OC (centres undefined)	> 60 µM	> 60 µM	> 60 µM (inactive)
CN1c2ccsc2C(O)=C(C(=O)Nc2ccccc2)S1(=O)=O	> 60 µM	> 60 µM	> 60 µM (inactive)
COc1ccc(Cl)cc1NC(=O)CS(=O)(=O)c1cccc2nsnc12	> 60 µM	> 60 µM	> 60 µM (inactive)
O=C(CSc1nnc2sc3ccccc3n12)N1CCN(c2ccccc2)CC1	> 60 µM	> 60 µM	
OCC#CCSc1nnc(-c2ccncc2)o1	> 60 µM	> 60 µM	> 60 µM (inactive)
CS(=O)(=O)c1nc(-c2cccs2)cc(C(F)(F)F)n1	> 60 µM	30.1 µM	> 60 µM (inactive)
C=CCSc1nnc(-c2ccc(Cl)cc2Cl)o1	> 60 µM	> 60 µM	59.2 µM (inactive)
O=C(c1noc2c1CCc1ccccc1-2)N1CCOCC1	> 60 µM	> 60 µM	> 60 µM (inactive)
